Experimental data from PubChem BioAssay AID256 (DTP/NCI, 2004).
Where “and” joins values, the source holds several entries; their conditions need not be identical. Equal entries are not always repeated. Inconclusive results and toxic doses are left out. Non-standard residues stand in square brackets, D forms with d. Residues, ends and D or L forms follow the SMILES beside them. ξ: configuration not given here. *: point of attachment. Cbz = O=C(OCc1ccccc1)*; ξV = CC(C)C(N)C(=O)O

Tested on: CD2F1 mice, L1210 leukemia ip, survival T/C
Test: NCI In Vivo Anticancer Drug Screen. Data for tumor model L1210 Leukemia (intraperitoneal) in CD2F1 (CDF1) mice
Conditions: higher = longer survival
Method in brief: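 Read-out first: treated-group measurement over vehicle-control measurement, expressed as a ratio. Animals bore a transplanted tumor line and were dosed with compound or vehicle.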

[1] = endpoint: mean survival time, dose: 100.0 mg/kg/injection, schedule: Q01DX009 (ip), vehicle: saline with Tween-80
[2] = endpoint: mean survival time, dose: 200.0 mg/kg/injection, schedule: Q01DX009 (ip), vehicle: saline with Tween-80
[3] = endpoint: mean survival time, dose: 400.0 mg/kg/injection, schedule: Q01DX009 (ip), vehicle: saline with Tween-80
[4] = endpoint: mean survival time, dose: 100.0 mg/kg/injection, schedule: Q04DX003 (ip), vehicle: saline with Tween-80
[5] = endpoint: mean survival time, dose: 200.0 mg/kg/injection, schedule: Q04DX003 (ip), vehicle: saline with Tween-80
[6] = endpoint: mean survival time, dose: 400.0 mg/kg/injection, schedule: Q04DX003 (ip), vehicle: saline with Tween-80

For `Cc1cc(=O)[nH]cn1`, the T/C (endpoint: mean survival time, dose: 100.0 mg/kg/injection, schedule: Q04DX002 (ip), vehicle: saline) was 105 % of control, the T/C (endpoint: mean survival time, dose: 200.0 mg/kg/injection, schedule: Q04DX002 (ip), vehicle: saline) was 105 % of control and the T/C (endpoint: mean survival time, dose: 400.0 mg/kg/injection, schedule: Q04DX002 (ip), vehicle: saline) was 97 % of control.

In the case of `COC(Cn1cnc2c(N)ncnc21)OC`, the T/C (endpoint: mean survival time, dose: 100.0 mg/kg/injection, schedule: Q04DX003 (ip), vehicle: saline) is reported as 110 % of control, the T/C (endpoint: mean survival time, dose: 200.0 mg/kg/injection, schedule: Q04DX003 (ip), vehicle: saline) is reported as 98 % of control and the T/C (endpoint: mean survival time, dose: 400.0 mg/kg/injection, schedule: Q04DX003 (ip), vehicle: saline) is reported as 112 % of control.

For `Cc1ccc(S(N)(=O)=O)cc1`, the T/C [1] was 94 % of control, the T/C [2] was 97 % of control and the T/C [3] was 102 % of control.

In the case of `COC(=O)C(NC(=O)CNC(=O)OCc1ccccc1)C(C)C` (stereo not drawn) (Cbz-Gly-[ξV]-OMe), the T/C [4] is reported as 100 % of control, the T/C [5] is reported as 97 % of control and the T/C [6] is reported as 99 % of control.

In the case of `[Cl][Pt+2][Cl].[NH-]C(CO)C([NH-])CO` (stereo unspecified), the T/C (endpoint: median survival time, dose: 1.25 mg/kg/injection, schedule: Q04DX003 (ip), vehicle: water) is reported as 102 % of control, the T/C (endpoint: median survival time, dose: 2.5 mg/kg/injection, schedule: Q04DX003 (ip), vehicle: water) is reported as 102 % of control and the T/C (endpoint: median survival time, dose: 5.0 mg/kg/injection, schedule: Q04DX003 (ip), vehicle: water) is reported as 115 % of control. For the same compound, the T/C (endpoint: median survival time, dose: 12.5 mg/kg/injection, schedule: Q04DX003 (ip), vehicle: distilled water + Tween-80) was 156 % of control and the T/C (endpoint: median survival time, dose: 20.0 mg/kg/injection, schedule: Q04DX003 (ip), vehicle: water) was 93 % of control.

With `CCOP(=O)(NCCCSC)OCC` the T/C (endpoint: mean survival time, dose: 5.0 mg/kg/injection, schedule: Q01DX009 (ip), vehicle: saline) was 96 % of control, the T/C (endpoint: mean survival time, dose: 10.0 mg/kg/injection, schedule: Q01DX009 (ip), vehicle: saline) was 97 % of control and the T/C (endpoint: mean survival time, dose: 20.0 mg/kg/injection, schedule: Q01DX009 (ip), vehicle: saline) was 88 % of control.

With `CC(=O)Oc1ccc(OC(C)=O)c2c1C(=O)C=CC2=O` the T/C (endpoint: mean survival time, dose: 0.78 mg/kg/injection, schedule: Q04DX002 (ip), vehicle: alcohol) was 92 % of control and the T/C (endpoint: mean survival time, dose: 3.12 mg/kg/injection, schedule: Q04DX002 (ip), vehicle: alcohol) was 86 % of control.

In the case of `CC(=O)Nc1c(C#N)c(C#N)nn1C`, the T/C (endpoint: mean survival time, dose: 50.0 mg/kg/injection, schedule: Q04DX002 (ip), vehicle: saline with Tween-80) is reported as 98 % of control, the T/C (endpoint: mean survival time, dose: 100.0 mg/kg/injection, schedule: Q04DX002 (ip), vehicle: saline with Tween-80) is reported as 106 % of control and the T/C (endpoint: mean survival time, dose: 200.0 mg/kg/injection, schedule: Q04DX002 (ip), vehicle: saline with Tween-80) is reported as 102 % of control.

With `Cc1cc(Br)cnc1Cl` the T/C (endpoint: mean survival time, dose: 100.0 mg/kg/injection, schedule: Q01DX001 (ip), vehicle: saline with Tween-80) was 97 % of control, the T/C [4] was 92 % of control and the T/C (endpoint: mean survival time, dose: 200.0 mg/kg/injection, schedule: Q01DX001 (ip), vehicle: saline with Tween-80) was 106 % of control. The T/C [5] was 97 % of control, the T/C (endpoint: mean survival time, dose: 400.0 mg/kg/injection, schedule: Q01DX001 (ip), vehicle: saline with Tween-80) was 101 % of control and the T/C [6] was 96 % of control.

In the case of `C=C(C)C(=O)OCCO` (tested in a mixture with another compound), the T/C [1] is reported as 106 % of control, the T/C [4] is reported as 98 % of control and the T/C [2] is reported as 101 % of control. The T/C [5] was 98 % of control, the T/C [3] was 100 % of control and the T/C [6] was 100 % of control.

With `S=C(S)Nc1ccc(Cc2ccc(NC(=S)S)cc2)cc1` the T/C [1] was 98 % of control, the T/C [2] was 96 % of control and the T/C [3] was 93 % of control.

`O=C(O)C1CCC(C(=O)O)CC1.[NH-]C1CCCCC1[NH-].[Pt+2]` (stereo unspecified) was tested, and the T/C (endpoint: median survival time, dose: 3.12 mg/kg/injection, schedule: Q04DX003 (ip), vehicle: saline) was 123 % of control and 112 % of control, the T/C (endpoint: median survival time, dose: 6.25 mg/kg/injection, schedule: Q04DX003 (ip), vehicle: saline) was 122 % of control and the T/C (endpoint: median survival time, dose: 25.0 mg/kg/injection, schedule: Q04DX003 (ip), vehicle: saline) was 168 % of control. The T/C (endpoint: median survival time, dose: 50.0 mg/kg/injection, schedule: Q04DX003 (ip), vehicle: saline) was 207 % of control and 237 % of control, the T/C (endpoint: median survival time, dose: 100.0 mg/kg/injection, schedule: Q04DX003 (ip), vehicle: saline) was 287 % of control and 365 % of control and the T/C (endpoint: median survival time, dose: 200.0 mg/kg/injection, schedule: Q04DX003 (ip), vehicle: saline) was 87 % of control and 89 % of control.

With `O=c1[nH]cnc2c1nnn2C1OC(CO)C(O)C1O` (stereo unspecified) the T/C (endpoint: median survival time, dose: 50.0 mg/kg/injection, schedule: Q01DX005 (ip), vehicle: saline) was 121 % of control, the T/C (endpoint: median survival time, dose: 200.0 mg/kg/injection, schedule: Q01DX005 (ip), vehicle: saline) was 156 % of control and the T/C (endpoint: median survival time, dose: 400.0 mg/kg/injection, schedule: Q01DX005 (ip), vehicle: saline) was 160 % of control. For the same compound, the T/C (endpoint: median survival time, dose: 400.0 mg/kg/injection, schedule: Q01DX005 (ip), vehicle: suspension in saline) was 90 % of control and the T/C (endpoint: median survival time, dose: 800.0 mg/kg/injection, schedule: Q01DX005 (ip), vehicle: saline) was 111 % of control.
